# Laboratory results as given in US20200131144A1, “AMINE OR (THIO)AMIDE CONTAINING LXR MODULATORS” (Phenex-FXR GmbH, priority 2017, published 2020).
# Read-outs that look alike come from different tables or passages of the source.
# Experiments:
# [1] = molecular target: T1, GST-LXRβ ligand-binding domain (Homo sapiens, UniProt P55055, INS174Q); assay: TR-FRETβ activity assay (NCoA3 coactivator peptide recruitment); assay type: biochemical; conditions: 1 μM 24(S)-25-epoxycholesterol as prestimulating agonist; inverse agonist unless *
# T1 construct: amino acids 156-461; NP009052; made in house; host or cells: E. coli
# T1 sequence (P55055 with tags, fused parts or gaps INS174Q limits assumed): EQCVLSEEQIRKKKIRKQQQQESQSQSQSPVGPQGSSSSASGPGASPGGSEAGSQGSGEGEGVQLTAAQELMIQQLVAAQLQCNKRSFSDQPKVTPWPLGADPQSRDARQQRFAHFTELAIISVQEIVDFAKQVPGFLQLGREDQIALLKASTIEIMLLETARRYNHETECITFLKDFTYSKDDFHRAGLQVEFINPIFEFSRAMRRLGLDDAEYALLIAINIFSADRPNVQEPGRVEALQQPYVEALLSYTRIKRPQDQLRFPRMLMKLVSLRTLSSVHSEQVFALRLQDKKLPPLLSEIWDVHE
# Outline: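 E. coli-expressed GST-LXRβ LBD (aa 156-461, 76 nM) with biotinylated NCoA3 peptide (400 nM), anti-GST-Tb cryptate donor and streptavidin-XL665 acceptor in 240 mM KCl, BSA, 0.002% Triton X-100. Equilibrated 1 h at 4° C; TR-FRET read at 615/665 nm, triplicates.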
# [2] = molecular target: T2, LXRα ligand-binding domain (LBD) (Homo sapiens, UniProt Q13133); assay: LXR Gal4 reporter transient transfection assay, mammalian two-hybrid, LBD-M2H Gal4α; assay type: cell-based; conditions: HEK293 cells; inverse agonist unless *
# T2 construct: expressed in transfected cells; host or cells: HEK293
# T2 sequence (Q13133 155-447): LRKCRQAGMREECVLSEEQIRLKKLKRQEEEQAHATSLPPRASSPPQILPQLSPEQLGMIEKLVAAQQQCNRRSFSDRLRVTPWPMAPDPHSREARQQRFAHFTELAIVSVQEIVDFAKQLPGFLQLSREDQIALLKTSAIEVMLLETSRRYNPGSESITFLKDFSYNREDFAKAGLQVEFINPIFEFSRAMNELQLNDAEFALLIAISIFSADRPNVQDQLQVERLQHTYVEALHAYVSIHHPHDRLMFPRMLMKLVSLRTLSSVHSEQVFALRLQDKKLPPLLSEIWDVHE
# Experimental: (§1) The tested compounds were usually dissolved, tested and stored as 20 mM stock solutions in DMSO. Since sulfonyl acetic acid derivatives tend to decarboxylate under these conditions, these stock solutions were prepared, tested and stored as 20 mM DMSO stock solutions containing 100 mM trifluoroacetic acid (5 equivalents). Sulfonyl acetic acid derivatives are shelf stable as solid at rt for long time as reported by Griesbrecht et al. (Synlett 2010:374) or Faucher et al. (J. Med. Chem. 2004; 47:18).
# (§2) LXR Gal4 Reporter Transient Transfection Assays
# (§3) LXRα and LXRβ activity status was determined via detection of interaction with coactivator and corepressor proteins in mammalian two-hybrid experiments (M2H). For this, via transient transfection the full length (FL) proteins of LXRα (amino acids 1-447; NP005684; SEQ ID NO:1) or LXRβ-(amino acids 1-461; NP009052; SEQ ID NO:2) or the ligand-binding domains (LBD) of LXRα (amino acids 155-447 SEQ ID NO:3) or LXR (amino acids 156-461; SEQ ID NO:4) were expressed from pCMV-AD (Stratagene) as fusions to the transcriptional activation domain of NFkB. As cofactors, domains of either the steroid receptor coactivator 1 (SRC1; amino acids 552-887; SEQ ID NO:5) or of the corepressor NCoR (amino acids 1906-2312; NP006302; SEQ ID NO:6) were expressed as fusions to the DNA binding domain of the yeast transcription factor GAL4 (from pCMV-BD; Stratagene). Interaction was monitored via activation of a coexpressed Firefly Luciferase Reporter gene under control of a promoter containing repetitive GAL4 response elements (vector pFRLuc; Stratagene). Transfection efficiency was controlled via cotransfection of constitutively active pRL-CMV Renilla reniformis luciferase reporter (Promega). HEK293 cells were grown in minimum essential medium (MEM) with 2 mM L-glutamine and Earle's balanced salt solution supplemented with 8.3% fetal bovine serum, 0.1 mM non-essential amino acids, 1 mM sodium pyruvate, at 37° C. in 5% CO2. 3.5×10^4 cells/well were plated in 96-well cell culture plates in growth medium supplemented with 8.3% fetal bovine serum for 16-20 h to—90% confluency. For transfection, medium was taken off and LXR and cofactor expressing plasmids as well as the reporter plasmids are added in 30 μL OPTIMEM/well including polyethylene-imine (PEI) as vehicle. Typical amounts of plasmids transfected/well: pCMV-AD-LXR (5 ng), pCMV-BD-cofactor (5 ng), pFR-Luc (100 ng), pRL-CMV (0.5 ng). Compound stocks were prepared in DMSO, prediluted in MEM to a total volume of 120 μL, and added 4 h after addition of the transfection mixture (final vehicle concentration not exceeding 0.2%). Cells were incubated for additional 16 h, lysed for 10 min in 1×Passive Lysis Buffer (Promega) and Firefly and Renilla luciferase activities were measured sequentially in the same cell extract using buffers containing D-luciferine and coelenterazine, respectively. Measurements of luminescence were done in a BMG-luminometer.
# [3] = molecular target: T3, LXRβ ligand-binding domain (LBD) (Homo sapiens, UniProt P55055, INS174Q); assay: LXR Gal4 reporter transient transfection assay, mammalian two-hybrid, LBD-M2H Gal4β; assay type: cell-based; conditions: HEK293 cells; inverse agonist unless *
# T3 construct: or LXR (amino acids 156-461); expressed in transfected cells; host or cells: HEK293
# T3 sequence (P55055 with tags, fused parts or gaps INS174Q limits assumed): T1 sequence (P55055 with tags, fused parts or gaps INS174Q limits assumed)
# Experimental: as §1, §2, §3
# LXRα full length (FL) = molecular target: T4, LXRα full length (FL) (Homo sapiens, UniProt Q13133); assay: LXR Gal4 reporter transient transfection assay, mammalian two-hybrid, FL-M2H Gal4α; assay type: cell-based; conditions: HEK293 cells; inverse agonist unless *
# T4 construct: the full length (FL) proteins of LXRα (amino acids 1-447); NP005684; expressed in transfected cells; host or cells: HEK293
# T4 sequence (Q13133 1-447): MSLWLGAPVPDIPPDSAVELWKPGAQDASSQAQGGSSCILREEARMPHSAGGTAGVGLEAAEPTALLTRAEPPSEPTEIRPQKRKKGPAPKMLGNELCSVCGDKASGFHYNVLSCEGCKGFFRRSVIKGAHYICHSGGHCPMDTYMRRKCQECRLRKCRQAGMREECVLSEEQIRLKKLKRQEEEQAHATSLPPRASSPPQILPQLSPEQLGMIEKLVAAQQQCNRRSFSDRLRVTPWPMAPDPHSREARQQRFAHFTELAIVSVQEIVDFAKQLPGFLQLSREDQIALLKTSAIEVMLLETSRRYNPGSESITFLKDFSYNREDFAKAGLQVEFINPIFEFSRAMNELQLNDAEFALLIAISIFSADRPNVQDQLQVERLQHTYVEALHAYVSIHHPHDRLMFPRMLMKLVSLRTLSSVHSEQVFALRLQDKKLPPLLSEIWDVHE
# Outline: (§4)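 HEK293 cells transiently cotransfected with NFkB-AD fusions of full-length or LBD LXRα/β, GAL4-DBD fusions of SRC1 coactivator or NCoR corepressor domains, GAL4-driven firefly luciferase and Renilla control. Compound added 4 h post-transfection (≤0.2% DMSO), 16 h incubation; firefly and Renilla luminescence read sequentially.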
# [4] = Pharmacokinetics in mice after single oral dosing, blood and liver exposure by LC-MS; assay type: in vivo, mice (C57/bl6/J); conditions: single oral dose 20 mg/kg
# Experimental: The pharmacokinetics of the compounds was assessed in mice after single dosing and oral administrations. Blood and liver exposure was measured via LC-MS.
# The study design was as follows:
# Animals: C57/bl6/J (Janvier) males Diet: standard rodent chow Dose: 20 mg/kg Animal handling: animals were withdrawn from food at least 12 h before administration Design: single dose oral administration, n=3 animals per group Sacrifice: at stated time point (4, 12 or 24 h) after administration Bioanalytics: LC-MS of liver and blood samples
# LXRβ full length (FL) = molecular target: T5, LXRβ full length (FL) (Homo sapiens, UniProt P55055, INS174Q); assay: LXR Gal4 reporter transient transfection assay, mammalian two-hybrid, FL-M2H Gal4β; assay type: cell-based; conditions: HEK293 cells; inverse agonist unless *
# T5 construct: the full length (FL) proteins of LXRα (amino acids 1-447); NP005684; NP009052; expressed in transfected cells; host or cells: HEK293
# T5 sequence (P55055 with tags, fused parts or gaps INS174Q): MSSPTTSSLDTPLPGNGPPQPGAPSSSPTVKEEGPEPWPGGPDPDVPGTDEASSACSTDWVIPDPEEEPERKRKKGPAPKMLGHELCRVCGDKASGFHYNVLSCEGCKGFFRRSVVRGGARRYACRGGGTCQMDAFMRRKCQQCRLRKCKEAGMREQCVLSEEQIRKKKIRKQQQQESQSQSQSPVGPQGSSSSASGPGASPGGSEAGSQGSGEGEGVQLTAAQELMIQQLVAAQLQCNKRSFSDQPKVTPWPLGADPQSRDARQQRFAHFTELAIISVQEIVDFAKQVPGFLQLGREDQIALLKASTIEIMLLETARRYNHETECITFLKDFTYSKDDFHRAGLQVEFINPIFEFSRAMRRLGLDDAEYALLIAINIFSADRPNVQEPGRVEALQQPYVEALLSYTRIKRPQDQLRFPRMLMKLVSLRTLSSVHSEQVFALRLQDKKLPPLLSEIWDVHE
# Outline: as §4
# [5] = Short term HFD mouse model: liver and plasma exposure after multiple oral dosing; assay type: in vivo, mice (C57BL/6J); conditions: C57BL/6J, HFD mice, three oral doses of 10 mg/kg each, 4 h after final dose
# Text: Short Term HFD Mouse Model:
# For this, C57BL/6J were purchased from Elevage Janvier (Rennes, France) at the age of 8 weeks. After an acclimation period of two weeks, animals were prefed on a high fat diet (HFD) (Ssniff Spezialdiäten GmbH, Germany, Surwit EF D12330 mod, Cat. No. E15771-34), with 60 kcal % from fat plus 1% (w/w) extra cholesterol (Sigma-Aldrich, St. Louis, Mo.) for 5 days. Animals were maintained on this diet during treatment with LXR modulators. The test compounds were formulated in 0.5% hydroxypropylmethylcellulose (HPMC) and administered in three doses (from 1.5 to 20 mg/kg each) by oral gavage according to the following schedule: on day one, animals received treatment in the morning and the evening (ca. 17:00), on day two animals received the final treatment in the morning after a 4 h fast and were sacrificed 4 h thereafter. Animal work was conducted according to the national guidelines for animal care in Germany.
# Multiple oral dosing of compounds from the present invention in mice lead to a high liver exposure with a favourable liver to plasma ratio. […] These genes are related to hepatic de-novo lipogenesis. A suppression of these genes will reduce liver fat (liver triglycerides).
# [6] = male, C57/bl6/J, mouse, liver/blood, time point 4 h, read-out: liver/blood ratio
Compound,EC50 [2] [nM],EC50 [3] [nM],EC50 [1] [nM],EC50 (LXRα full length (FL)) [nM],also measured
Cc1nc2ccccc2c(CN(Cc2ccc(-c3cccc(C(C)(C)C(=O)O)c3)cc2)Cc2ccc(C(F)(F)F)o2)c1C [24/5],< 100,< 100,,,FRETβ [1]: D*
Cc1ccc2ccccc2c1CN(Cc1ccc(C(F)(F)F)o1)Cc1ccc(-c2cccc(C(C)(C)C(=O)O)c2)c2nccn12 [7/15],100 to 1000,< 100,1000 to 10000,,
COc1cc(CN(Cc2ccc(C(F)(F)F)o2)Cc2c(C)ccc3ccccc23)ccc1-c1cccc(C(C)(C)C(=O)O)c1 [22/1],,100 to 1000,1000 to 10000,,
Cc1ccc2ccccc2c1CN(Cc1ccc(-c2nc(C(C)(C)C(=O)O)cs2)cc1)Cc1ccc(C(F)(F)F)o1 [26/3],,< 100,1000 to 10000,,
CC(C)(C(=O)O)c1cccc(-c2ccc(CN(Cc3ccc(C(F)(F)F)o3)Cc3cccc4c3OC(F)(F)O4)cc2)c1 [25/2],100 to 1000,< 100,,,
Cc1ccc2ccccc2c1CN(Cc1ccc(C(F)(F)F)o1)Cc1cnc(-c2cccc(C(C)(C)C(=O)O)c2)s1 [22/2],,100 to 1000,1000 to 10000,,

# Further lines, with some results ahead:
EC50 [2] [nM],EC50 [3] [nM],EC50 [1] [nM],EC50 (LXRα full length (FL)) [nM],Compound,also measured
< 100,< 100,< 100,,"CC(c1cccc2ccccc12)N(Cc1ccc(-c2cccc(S(=O)(=O)CC(=O)O)c2)cc1)Cc1ccc(C(F)(F)F)o1 (stereo not drawn) [Example 7, 2-((4′-(((1-(Naphthalen-1-yl)ethyl)((5-(trifluoromethyl)furan-2-yl)methyl)amino)methyl)-[1,1′-biphenyl]-3-yl)sulfonyl)acetic acid]",
,100 to 1000,> 10000,,Cc1nc2ccccc2nc1CN(Cc1ccc(-c2cccc(C(C)(C)C(=O)O)c2)cc1)Cc1ccc(C(F)(F)F)o1 [Example 25],
,,< 100,100 to 1000,Cc1cc(C)c(CN(Cc2ccc(-c3cccc(C(C)(C)C(=O)O)c3)cc2)Cc2ccc(C(F)(F)F)o2)c(C)c1 [Example 10],"Kp at 12 h ([4]; male, C57/bl6/J, mouse, liver/blood, time point 12 h, read-out: liver/blood ratio): 2.7; blood/plasma exposure ([4]; time point 12 h): 0.57 µM; liver exposure ([4]; time point 12 h): 1.5 µM; EC50 (LXRβ full length (FL)): 100 to 1000 nM"
,,1000 to 10000,100 to 1000,Cc1ccc2ccccc2c1CN(Cc1ccc(-c2cccc(S(=O)(=O)CC(=O)O)c2)cc1)Cc1ccc(C(F)(F)F)o1 [Example 7/1],"Kp at 4 h [4, 6]: 86; blood/plasma exposure ([4]; time point 4 h): 0.21 µM; liver exposure ([4]; time point 4 h): 18 µM; EC50 (LXRβ full length (FL)): < 100 nM"
,,100 to 1000,< 100,Cc1ccc2ccccc2c1CN(Cc1ccc(-c2cccc([C@@H](C)C(=O)O)c2)cc1)Cc1ccc(C(F)(F)F)o1 [27/72],"concentration at 4 h ([5]; liver, read-out: liver exposure, 4 h): 2020 nM; Kp at 4 h ([5]; liver/plasma, read-out: liver/plasma ratio, 4 h): 1.4; concentration at 4 h ([5]; plasma, read-out: plasma exposure, 4 h): 1440 nM"
,,100 to 1000,< 100,Cc1c(CN(Cc2ccc(-c3cccc(C(C)(C)C(=O)O)c3)cc2)Cc2ccc(C(F)(F)F)o2)c2ccccc2n(C)c1=O [27/23],"Kp at 4 h [4, 6]: 19; blood/plasma exposure ([4]; time point 4 h): 0.15 µM; liver exposure ([4]; time point 4 h): 2.9 µM; EC50 (LXRβ full length (FL)): < 100 nM"
